Test system: early-stage triple negative breast cancer
Assay: Phase 2 randomized open label study of veliparib and carboplatin with standard neoadjuvant chemotherapy; pathologic complete response
Type: in vivo, human
From the text: Pathological Complete Response (pCR) is the absence of any residual invasive cancer on hematoxylin and eosin evaluation of the resected breast specimen and any resected lymph node tissue following completion of neoadjuvant systemic therapy.
This example is a Phase 2, interventional, randomized, open label study evaluating the safety and efficacy of veliparib and carboplatin administered concurrently with standard chemotherapy in subjects with early-stage triple negative breast cancer.
Patients received 50 mg po bid during the 12 weekly treatment cycles post-randomization and carboplatin: AUC 6 IV every three weeks for […] during the 12 weekly treatment cycles post-randomization with standard chemotherapy or alternatively standard chemotherapy alone. Standard chemotherapy was paclitaxel: 80 mg/m^2 IV during the 12 weekly treatment cycles post randomization; doxorubicin: 60 mg/m^2 IV after completion of the 12 weekly treatment cycles and prior to surgery for weeks 13-16; cyclophosphamide: 600 mg/m^2 IV after completion of the 12 weekly treatment cycles and prior to surgery for weeks 13-16.
Determine whether adding veliparib and carboplatin to standard neoadjuvant medications increases the probability of pathologic complete response (pCR) over standard neoadjuvant chemotherapy for triple negative breast cancer. […]

C[C@]1(c2nc3c(C(N)=O)cccc3[nH]2)CCCN1 [Veliparib arm, 2-[(2R)-2-methylpyrrolidin-2-yl]-1H-benzimidazole-4-carboxamide]
pCR % (patients with triple negative breast cancer, neoadjuvant therapy followed by surgery, veliparib arm: veliparib 50 mg po bid + carboplatin AUC 6 IV during the 12 weekly cycles, added to standard chemotherapy (paclitaxel, then doxorubicin/cyclophosphamide), control arm: standard chemotherapy alone): 56% (n = 39)
effect on number of women achieving pCR status (veliparib and carboplatin added to standard of care, neoadjuvant setting, early triple negative breast cancer): increases the number of women that achieve pCR status
